System: Colorado Potato Beetle (Leptinotarsa decemlineata)
Assay: Activity against Colorado potato beetle, potato leaf dip
Type: in vivo
Details: foliar, 120 h, read-out: mortality compared to 0% mortality of untreated controls
Protocol: 6. Activity Against Colorado Potato Beetle (Leptinotarsa decemlineata)
Potato plants were utilized for bioassays. Excised plant leaves were dipped into 1:1 acetone/water dilutions of the active compounds. After the leaves had dried, they were individually placed onto water-moistened filter paper on the bottoms of Petri dishes. Each dish was infested with 5 to 7 larvae and covered with a lid. Each treatment dilution was replicated 4 times. Test dishes were held at approximately 27° C. and 60% humidity. Numbers of live and morbid larvae were assessed in each dish at 5 days after treatment application, and percent mortality was calculated.

Structure (SMILES): CC(C)N1CC[C@H]1COc1cncc(Cl)c1 [Ia-155, 3-Chloro-5-((S)-1-isopropyl-azetidin-2-ylmethoxy)-pyridine]
- mortality at 300 ppm: > 50%

From US20100069244A1, “Pyridine Compounds for Combating Pests” (priority 2006, published 2010)
